Common to all, as to type: in vivo
Experiment [1] deals with male mice of BALB/c line. As to the kind of experiment: Passive Avoidance of mice in the Shuttle Chamber, memory disturbed by Scopolamine. As to conditions: Scopolamine 0.3 mg/kg, intraperitoneally 30 minutes before training; FIG. 1-3. As to the method: Nootropic action (enhancement of memory disturbed by Scopolamine) of compounds of the general formula 1 in the test “Passive Avoidance of mice in the Shuttle Chamber”. A shuttle chamber (Ugo Basile, Italy) consisted of two sections was used. […] The sections were connected through a hole which could be overlapped by vertical door. The floor of the dark section was made of transverse metal bars on which DC current impulses could be fed. Experiments were carried out in aged male mice of BALB/c line weighing 20-25 grams.
On the first day of the experiment 30 minutes before training mice were injected intraperitoneally with physiological solution, Scopolamine (0.3 mg/kg), or Scopolamine in combination with compound 1.5(1). Each group consisted of 8 animals at least. The animals were placed in the light section, and latent period of the first entry into the dark chamber was registered. Then the vertical door was closed and the animal was punished by 0.6 mA DC current for 3 seconds. After that the animal was taken back to its home cage. In 22-24 hours the same animal was placed again in the light section of the shuttle chamber and latent period of its first entry into the dark section, the total time of its stay in the light section and the number of entries into dark section were registered. Each monitoring lasted for 5 minutes. […]

In experiment [2] the test system is male mice of BALB/c line. As to the kind of experiment: Passive Avoidance of mice in the Shuttle Chamber, memory disturbed by MK-801. The conditions noted are these: MK-801 0.1 mg/kg, intraperitoneally 30 min before training; FIG. 4-6.
Experiment [3] deals with male mice of BALB/c line. As to the kind of experiment: Mice Behavior in the Elevated Plus Maze. As to conditions: 5 minutes, FIG. 7-9. Here is the method: Anxiolytic (tranquilizing) action of compounds of the general formula 1 in “Mice Behavior in the Elevated Plus Maze” test. Compounds 1.1(9), 1.5 (1) and 1.8(7) were employed in the experiments. Arm length was 30 cm, width—5 cm, wall hight—15 cm. Two opposite arms were closed from both sides and end surfaces with transparent plexiglass; two others—lighted and opened. A mouse was placed in the maze center, and over a period of 5 minutes the number of opened and closed arms entries and duration of opened and closed arm entries were registered. […] Being in normal state animals avoid opened arms (index of preference makes 0.2-0.3). Compounds with anxiolytic activity (tranquilizing activity) run this value up to 0.5-0.6 and more, and also decrease the number of defecations without changing overall physical activity (general number of arm entries).

Experiment [4] deals with Male rats of Vistar line. The experiment in a line: Appetite Control Test. The conditions noted are these: dose 10 mg/kg intraperitoneally 60 minutes before the test; 16 h food deprivation; FIG. 10. As to the method:
Male rats of Vistar line weighing 230-360 g were housed in standard home cages with water and food available with the exception of short periods of food deprivation (16 hs) just before the Appetite test. The Appetite test was carried out in individual cages with overhead cover made of wire in the niches of which a portion of food granules was inserted. Mass of the granules was examined every 30 minutes for 3 h. On the basis of these measurements food consumption was estimated and stated in grams of food per kilogram of body mass. Placebo and compound 1.5(1) (dose 10 mg/kg) were injected intraperitoneally 60 minutes before the test. Each experimental group of animals consisted of 10 rats. Compound was dissolved in sterilized water. The injection volume was 10 ml/kg. Intact animals which were not undergone food deprivation, and animals after food deprivation, but injected with sterilized water, were used as control. Intact animals which were not undergone food deprivation and injected with sterilized water, were used as control. The experiment was carried out also using compounds 1.1(9) and 1.8(7).

Experiment [5] deals with Mice of SHK line. The experiment in a line: Prepulse inhibition of the startle response in mice (Apomorphine model). As to conditions: 1 mg/kg, 60 minutes before the test; FIG. 11. Here is the method: Antipsychotic activity of compounds of the general formula 1 in “Prepulse inhibition of the startle response in mice” test. Mice of SHK line weighing about 24-30 g were used in the test. Experiments were carried out during light period of animal's diurnal. Apomorphine hydrochloride and Haloperidol were received from Sigma Chemicals Company, (USA). Apomorphine hydrochloride was dissolved in 0.1% solution of ascorbic acid prepared with sterilized water; it was introduced subcutaneously 15 minutes before the test. Haloperidol was dissolved in sterilized water using emulsifier Twin 80, it was introduced intraperitoneally 60 minutes before the test. Compound 1.5(1) was dissolved in sterilized water, it was introduced subcutaneously 60 minutes before the test. Injection volume was 10 ml/kg. Solution of ascorbic acid prepared with sterilized water and Twin 80 were injected to control group of animals.
The test instrument consisted of a chamber made of transparent plexiglass (manufacturer—Columbia Instruments Company, USA) and placed on a platform; the latter was lodged inside the sound insulating chamber. High frequency sound column transmitting acoustic stimulus was located 2 cm away from the platform. […] Level of background noise made up 65 dB. Each animal received 4 stimuli of single testing (pulse) stimulus of 50 ms duration and 105 dB or prepulsory stimulus (pre-pulse) of 20 ms duration and 85 dB, after which in 30 ms pulse stimulus of 50 ms duration and 105 dB followed. Time interval between repeated pulse or prepulse in combination with pulse stimuli made up 10 s. Inhibition of the startle in reply to prepulse-plus-pulse stimulus was calculated in percentage towards amplitude of startle in response to isolated pulse stimulus. Administration of Apomorphine, which is used in experiments on animals for modelling of psychoto-like conditions, caused reduction of prepulse inhibition of startle, which reflected the lowering of CNS ability to filter sensory stimulus. The experiment was also carried out using compounds 1.1(9) and 1.8(7).

For experiment [6], the system named is male mice of BALB/c line. As to the kind of experiment: Porsolt's Forced Swim Test. The conditions noted are these: after 4 days administration in doses of 1 mg/kg; last 5 minutes of 15 min test; FIG. 12. Here is the method: Antidepressant action of antagonists of the general formula 1 in Porsolt's Forced Swim Test. The test apparatus represented a plastic vessel filled with water up to height of 18 cm at 20-22° C. Experiments were carried out in aged male mice of BALB/c line weighing 20-24 grams. An animal was placed in water and for 15 minutes the duration of immobile hanging in water—so named behavioural despaire which is considered to be a measure of depressively-like state, was registered. The last 5 minutes of the test were used for estimation. Automated computerized detection of motion with video system and Any-maze program were used in test.

For experiment [7], the system named is male mice of BALB/c line. As to the kind of experiment: Tail suspension test. As to conditions: after 4 days administration in doses of 0.1 mg/kg; 3 minutes; FIG. 13. Here is the method: Antidepressant action of compounds of the general formula 1 in tail suspension test. Experiments were carried out in aged male mice of BALB/c line weighing 20-24 grams. In the test mice were suspended by tail with scotch tape on holder over horizontal surface at a height of about 40 cm, and for 3 minutes the total duration of complete immobility episodes which is considered to be a measure of depressively-like state was registered. Automated computerized detection of motion with video system and Any-maze program were used in test.

Here are results for 3 compounds from patent US8829002B2, “Substituted methyl amines, serotonin 5-HT6 receptor antagonists, methods for production and use thereof” (priority 2010, dated 2014).

For `CNc1ccc(N2CCNCC2)cc1S(=O)(=O)c1cccc(F)c1` [1.1(9), methyl-[4-piperazin-1-yl-6-(3-fluorophenylsulfonyl)phenyl]-amine], in experiment [1], the “Nootropic action (enhancement of memory disturbed by Scopolamine)” value is reported as “produce nootropic action more effectively”. Besides, the “Nootropic action (enhancement of memory disturbed by MK-801)” value in experiment [2] is listed as “produce nootropic action”. For the same compound, the “Anxiolytic (tranquilizing) action” value in experiment [3] was “anxiolytic (tranquilizing) activity comparable to the activity of Buspirone and Lorazepam”. In addition, the “Appetite (food consumption) after food deprivation” value in experiment [4] is reported as “capable to prevent appetite rising in rats”. Further, the “Antipsychotic activity: prepulse inhibition of startle disturbed by Apomorphine” value in experiment [5] is listed as “prevented disturbance of prepulse inhibition of startle caused by Apomorphine”. In addition, in experiment [6], the “Antidepressant action: duration of immobile hanging in water (behavioural despaire)” value is recorded as “diminish the given parameter”. In addition, the “Antidepressant action: total duration of complete immobility” value in experiment [7] is on record as “diminish the duration of complete immobility of mice”.

For the compound `CNc1c(S(=O)(=O)c2ccccc2)cnc2c(N3CCNCC3)cccc12` [1.5 (1), methyl-(8-piperazin-1-yl-3-phenylsulfonylquinolin-4-yl)-amine], the “Nootropic action (enhancement of memory disturbed by Scopolamine)” value in experiment [1] is “produce nootropic action more effectively”. Further, in experiment [2], the “Nootropic action (enhancement of memory disturbed by MK-801)” value is on record as “produce nootropic action”. Further, the “Anxiolytic (tranquilizing) action” value in experiment [3] was “anxiolytic (tranquilizing) activity comparable to the activity of Buspirone and Lorazepam”. In experiment [4], the “Appetite (food consumption) after food deprivation” value is given as “capable to prevent appetite rising in rats”. The “Antipsychotic activity: prepulse inhibition of startle disturbed by Apomorphine” value in experiment [5] was “prevented disturbance of prepulse inhibition of startle caused by Apomorphine”. Besides, the “Antidepressant action: duration of immobile hanging in water (behavioural despaire)” value in experiment [6] is recorded as “diminish the given parameter”. Besides, the “Antidepressant action: total duration of complete immobility” value in experiment [7] is “diminish the duration of complete immobility of mice”.

Consider `O=C(CCCN1CCC(O)(c2ccc(Cl)cc2)CC1)c1ccc(F)cc1` [Haloperidol, reference compound], for which the “Antipsychotic activity: prepulse inhibition of startle disturbed by Apomorphine” value in experiment [5] is given as “prevented disturbance of prepulse inhibition of startle caused by Apomorphine”.
